Experimental data as given in patent US8263773B2, “Thieno [2,3-b] pyridine compounds with mGluR activity” (Richter Gedeon Nyrt., priority 2008, dated 2012).

What was measured:
rat mGluR5 = molecular target: T1, rat mGluR5 (Rattus norvegicus, UniProt P31424); assay: rat mGluR5 receptor binding ([3H]-M-MPEP, rat cerebro-cortical membranes); settings: for Ki: rat cerebro-cortical membranes, [3H]-M-MPEP 2 nM; for binding affinity to rat mGlu5 receptors: statement in words
T1 construct: Rat cerebro-cortical membrane preparation was used; from tissue; host or cells: rat cerebral cortex membranes
Protocol: (§1) MGluR5 Receptor Binding Tests
(§2) MGluR5 receptor binding was determined according to Gasparini et al. (Bioorg. Med. Chem. Lett. 2000, 12:407-409) with modifications. Rat cerebro-cortical membrane preparation was used to determine the binding characteristics of reference compounds and novel compounds to the rat mGluR5. The A18 cell line expressing hmGluR5a (purchased from Euroscreen) was used to determine binding characteristics of the chemical compounds to the human mGluR5a receptor. [3H]-M-MPEP (2 nM) was used as a radioligand. The nonspecific binding was determined in the presence of 10 μM M-MPEP.

male Wistar rats = assay: Anxiolytic activity in the punished drinking test (Vogel); type: in vivo, rat; settings: for Punished drinking, MED: oral, 60 min before test, MED = dose increasing accepted shocks above 35, male Wistar rats; for anxiolytic activity after oral administration: statement in words
From the text: Measurement of Anxiolytic Activity in the Punished Drinking Test
The method described by Vogel et al. (Psychopharmacology (Berl.) 1971, 21:1-7) was used with modifications. On the day preceding the test day male Wistar rats (180-220 g) were placed into the test chambers which were equipped with a metal water spout mounted on the wall of the chamber and a metal grid floor for delivering electric shocks. During a 5-min adaptation period the animals had free access to the drinking spout. Following the adaptation session rats were deprived of drinking water for 24 hours prior to the test. On the day of the measurement, the animals were orally treated with the test compounds and 60 minutes later were placed into the test chambers where they had access to the drinking water. In the test session drinking was punished by delivering electric shocks (1 mA, 1 sec) through the drinking spout following every 10 licks during a 270 second punishment period. Number of licks and shocks delivered were recorded and stored in a computer. Anxiolytic activity is reflected by the increased number of accepted shocks. Minimum effective doses (MED, defined as the dose which increased the number of accepted shocks above 35) were determined and used to characterize the anxiolytic potency of the tested compounds.

human mGluR5a receptor = molecular target: T2, human mGluR5a receptor (Homo sapiens, UniProt P41594); assay: human mGluR5a receptor binding ([3H]-M-MPEP, A18 cell line expressing hmGluR5a); settings: for Ki: A18 cell line expressing hmGluR5a, [3H]-M-MPEP 2 nM; for binding affinity to human mGlu5 receptors: statement in words
T2 construct: host or cells: A18 cell line
Protocol: as §1, §2

T1 sequence (P31424 21-1203): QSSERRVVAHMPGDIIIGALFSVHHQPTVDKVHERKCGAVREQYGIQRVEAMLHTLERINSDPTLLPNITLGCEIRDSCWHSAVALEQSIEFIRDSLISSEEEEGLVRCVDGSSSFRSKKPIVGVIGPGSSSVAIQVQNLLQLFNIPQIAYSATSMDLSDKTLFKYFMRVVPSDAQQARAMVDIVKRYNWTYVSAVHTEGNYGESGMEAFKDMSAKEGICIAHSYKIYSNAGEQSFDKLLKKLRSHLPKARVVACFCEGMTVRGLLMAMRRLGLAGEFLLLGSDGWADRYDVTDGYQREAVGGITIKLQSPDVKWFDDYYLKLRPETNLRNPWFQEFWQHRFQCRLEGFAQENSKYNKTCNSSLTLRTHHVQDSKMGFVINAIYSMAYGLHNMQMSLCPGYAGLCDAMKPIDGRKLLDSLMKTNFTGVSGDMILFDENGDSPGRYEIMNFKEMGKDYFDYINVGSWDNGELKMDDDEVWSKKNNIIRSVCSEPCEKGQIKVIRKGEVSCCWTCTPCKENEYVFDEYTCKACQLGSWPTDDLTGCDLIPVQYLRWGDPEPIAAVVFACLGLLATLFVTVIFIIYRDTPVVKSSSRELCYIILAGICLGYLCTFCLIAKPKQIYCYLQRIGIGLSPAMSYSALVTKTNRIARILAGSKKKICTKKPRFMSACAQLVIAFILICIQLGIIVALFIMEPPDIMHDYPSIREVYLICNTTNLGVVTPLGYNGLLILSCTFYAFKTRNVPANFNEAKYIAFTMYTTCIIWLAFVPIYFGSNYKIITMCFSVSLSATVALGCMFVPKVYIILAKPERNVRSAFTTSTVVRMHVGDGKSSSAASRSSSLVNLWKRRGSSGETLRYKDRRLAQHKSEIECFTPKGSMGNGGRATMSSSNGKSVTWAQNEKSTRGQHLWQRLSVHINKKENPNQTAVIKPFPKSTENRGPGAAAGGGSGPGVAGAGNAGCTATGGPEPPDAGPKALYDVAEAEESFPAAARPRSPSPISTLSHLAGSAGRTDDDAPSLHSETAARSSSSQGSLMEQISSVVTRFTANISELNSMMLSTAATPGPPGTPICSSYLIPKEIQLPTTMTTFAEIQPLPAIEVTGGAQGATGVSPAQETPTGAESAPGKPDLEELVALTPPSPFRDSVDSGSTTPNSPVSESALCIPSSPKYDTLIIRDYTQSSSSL
T2 sequence (P41594 21-1180 isoform P41594-2 limits assumed): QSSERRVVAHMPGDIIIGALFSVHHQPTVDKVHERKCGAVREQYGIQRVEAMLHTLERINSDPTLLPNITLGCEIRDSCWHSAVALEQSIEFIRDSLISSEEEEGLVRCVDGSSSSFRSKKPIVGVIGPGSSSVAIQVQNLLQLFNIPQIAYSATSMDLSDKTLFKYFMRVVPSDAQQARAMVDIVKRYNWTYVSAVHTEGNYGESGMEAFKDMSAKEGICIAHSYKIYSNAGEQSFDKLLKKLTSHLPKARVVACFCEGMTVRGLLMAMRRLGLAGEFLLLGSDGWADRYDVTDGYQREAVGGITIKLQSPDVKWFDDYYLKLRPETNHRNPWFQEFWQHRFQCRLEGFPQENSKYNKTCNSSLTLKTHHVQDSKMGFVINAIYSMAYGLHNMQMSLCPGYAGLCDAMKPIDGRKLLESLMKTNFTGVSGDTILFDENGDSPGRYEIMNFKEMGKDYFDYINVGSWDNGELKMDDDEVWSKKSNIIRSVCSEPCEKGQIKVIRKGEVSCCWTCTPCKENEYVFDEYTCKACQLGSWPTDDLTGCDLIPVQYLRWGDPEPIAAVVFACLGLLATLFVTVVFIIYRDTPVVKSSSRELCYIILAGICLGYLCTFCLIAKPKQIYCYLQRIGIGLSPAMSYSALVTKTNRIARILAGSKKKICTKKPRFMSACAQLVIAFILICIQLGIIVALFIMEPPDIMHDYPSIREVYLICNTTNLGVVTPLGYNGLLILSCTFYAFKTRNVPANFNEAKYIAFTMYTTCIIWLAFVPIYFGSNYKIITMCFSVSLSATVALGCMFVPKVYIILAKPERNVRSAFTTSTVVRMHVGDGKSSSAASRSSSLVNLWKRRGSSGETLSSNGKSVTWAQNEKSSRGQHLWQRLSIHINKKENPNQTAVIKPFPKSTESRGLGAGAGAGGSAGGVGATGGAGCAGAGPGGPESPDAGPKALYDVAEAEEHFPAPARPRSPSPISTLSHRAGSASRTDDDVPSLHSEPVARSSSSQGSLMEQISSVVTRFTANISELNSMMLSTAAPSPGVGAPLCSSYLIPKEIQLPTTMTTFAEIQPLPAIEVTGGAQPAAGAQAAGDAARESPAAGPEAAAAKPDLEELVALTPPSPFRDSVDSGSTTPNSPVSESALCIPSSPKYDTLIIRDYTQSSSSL

Ki (rat mGluR5)	binding affinity to rat mGlu5 receptors (rat mGluR5)	Ki (human mGluR5a receptor)	binding affinity to human mGlu5 receptors (human mGluR5a receptor)	SMILES	Punished drinking, MED (male Wistar rats)	anxiolytic activity after oral administration (male Wistar rats)
1.9 nM	high affinity	3.2 nM	high affinity	N#Cc1cc(F)cc(S(=O)(=O)c2sc3ncc(N)cc3c2-c2cccc(F)c2)c1 [Compound 1, 5-Amino-2-(3-cyano-5-fluoro-benzenesulfonyl)-3-(3-fluorophenyl)-thieno[2,3-b]-pyridine]	3 mg/kg	remarkable anxiolytic activity
7.2 nM	high affinity	8.7 nM	high affinity	N#Cc1cc(F)cc(S(=O)(=O)c2sc3ncc(N)cc3c2-c2cccc(Cl)c2)c1 [Compound 2, 5-Amino-2-(3-cyano-5-fluoro-benzenesulfonyl)-3-(3-chlorophenyl)-thieno[2,3-b]-pyridine]	5 mg/kg	remarkable anxiolytic activity
